Reference: BindingDB's records for doi:10.1021/jm00053a025 (University of Minnesota, 1993)

Test: Binding affinity for delta opioid receptor was determined using radioligand [3H]DPDPE in Guinea pig brain membranes.

CCCCC(=N)NCc1ccc2[nH]c3c(c2c1)C[C@@]1(O)C2Cc4ccc(O)c5c4[C@@]1(CCN2CC1CC1)C3O5 (stereo partly drawn) [22-cyclopropylmethyl-7-(1-iminopentylaminomethyl)-(2S)-14-oxa-11,22-diazaheptacyclo[13.9.1.01,13.02,21.04,12.05,10.019,25]pentacosa-4(12),5(10),6,8,15,17,19(25)-heptaene-2,16-diol]
Ki: 5.5 nM
